Experimental data: ChEMBL document CHEMBL4808204, “Discovery of non-proteinogenic amino acids inhibiting biofilm formation by S. aureus and methicillin-resistant S. aureus” (Bioorg Med Chem Lett, 2021)
The source made the active and inactive calls. No cut-off for these calls is given here.

Key:
[1] = test system: Staphylococcus aureus; experiment: Antibacterial activity in Staphylococcus aureus assessed as bacterial growth rate at 100 uM measured by UV absorbance based analysis; assay type: functional
[2] = test system: Staphylococcus aureus; experiment: Antibiofilm activity against Staphylococcus aureus assessed as biofilm formation at 100 uM measured by crystal violet staining based microplate reader assay; assay type: functional
[3] = test system: Staphylococcus aureus; experiment: Antibiofilm activity against Staphylococcus aureus assessed as inhibition of biofilm formation at 500 uM; assay type: functional
[4] = test system: Staphylococcus aureus; experiment: Antibiofilm activity against Staphylococcus aureus assessed as inhibition of biofilm formation at 60 uM; assay type: functional
[5] = test system: Staphylococcus aureus; experiment: Antibiofilm activity against Staphylococcus aureus assessed as inhibition of biofilm formation at 100 uM; assay type: functional
[6] = test system: HeLa; experiment: Cytotoxicity against human HeLa cells at 1 to 100 uM by WST8 assay; assay type: cell-based; details: dose 1-100 µM
[7] = test system: Staphylococcus aureus; experiment: Antibiofilm activity against Staphylococcus aureus assessed as inhibition of biofilm formation by UV absorbance based analysis; assay type: functional, organism-based; details: dose 1-100 µM
[8] = test system: Streptococcus mutans; experiment: Antibiofilm activity against Streptococcus mutans assessed as inhibition of biofilm formation at 1 to 100 uM by UV absorbance based analysis; assay type: functional, organism-based; details: dose 1-100 µM
[9] = test system: Acinetobacter baumannii; experiment: Antibiofilm activity against Acinetobacter baumannii assessed as inhibition of biofilm formation at 1 to 100 uM by UV absorbance based analysis; assay type: functional, organism-based; details: dose 1-100 µM
[10] = test system: Escherichia coli; experiment: Antibiofilm activity against Escherichia coli assessed as inhibition of biofilm formation at 1 to 100 uM by UV absorbance based analysis; assay type: functional, organism-based; details: dose 1-100 µM
[11] = test system: Listeria monocytogenes; experiment: Antibiofilm activity against Listeria monocytogenes assessed as inhibition of biofilm formation by UV absorbance based analysis; assay type: functional, organism-based; details: dose 1-100 µM
[12] = test system: Staphylococcus aureus; experiment: Antibiofilm activity against methicillin-resistant Staphylococcus aureus assessed as inhibition of biofilm formation by UV absorbance based analysis; assay type: functional, organism-based; details: dose 1-100 µM
[13] = test system: Staphylococcus epidermidis; experiment: Antibiofilm activity against Staphylococcus epidermidis assessed as inhibition of biofilm formation at 1 to 100 uM by UV absorbance based analysis; assay type: functional, organism-based; details: dose 1-100 µM
[14] = test system: Staphylococcus aureus; experiment: Antibiofilm activity against Staphylococcus aureus assessed as inhibition of attachment of biofilm on the bacterial surface at 1 to 100 uM; assay type: functional, organism-based; details: dose 1-100 µM
[15] = test system: Pseudomonas aeruginosa; experiment: Antibiofilm activity against Pseudomonas aeruginosa assessed as inhibition of biofilm formation at 1 to 100 uM by UV absorbance based analysis; assay type: functional, organism-based; details: dose 1-100 µM
[16] = test system: Staphylococcus aureus; experiment: Antibiofilm activity against Staphylococcus aureus assessed as inhibition of biofilm formation at 10 uM measured by crystal violet staining based microplate reader assay; assay type: functional
[17] = test system: Pseudomonas aeruginosa; experiment: Antibiofilm activity against Pseudomonas aeruginosa assessed as inhibition of biofilm formation at 100 uM measured by crystal violet staining based microplate reader assay; assay type: functional, organism-based
[18] = test system: Staphylococcus aureus; experiment: Antibiofilm activity against Staphylococcus aureus assessed as inhibition of biofilm formation at 66 uM; assay type: functional
[19] = test system: Pseudomonas aeruginosa; experiment: Antibiofilm activity against Pseudomonas aeruginosa assessed as inhibition of biofilm formation at 100 uM; assay type: functional

Compound | Activity [1] | Biofilm formation [2] | further results
OCc1ccc(O)c(O)c1 | 104% | 107% | 
NC(Cc1ccc(Oc2ccc(O)cc2)cc1)C(=O)O (configuration not stated) | 106% | 15% | 
CCCCCCCCCCCCCC(=O)NCC(=O)O | 38% | 4% | 
O=C(O)[C@H]1CCCN1 [D-PROLINE] |  |  | inhibition at 500 µM [3]: > 70%
NC(C(=O)O)C(O)c1ccccc1 (configuration not stated) | 97% | 101% | 
NC(Cc1cc(I)c(Oc2ccc(O)c(I)c2)c(I)c1)C(=O)[O-].[Na+] (configuration not stated) | 18% | 2% | 
N[C@@H](Cc1ccc(Cl)c(Cl)c1)C(=O)O | 117% | 46% | 
Oc1ccccc1O [CATECHOL] | 106% | 84% | 
CC(C)c1ccc2c(c1)CC[C@H]1[C@](C)(C(=O)O)CCC[C@]21C [DEHYDROABIETIC ACID] |  |  | inhibition at 60 µM [4]: 90%
CNC[C@H](O)c1ccc(O)c(O)c1 [EPINEPHRINE] | 79% |  | Activity [2]: 77%
NC(Cc1cc(I)c(O)c(I)c1)C(=O)O (configuration not stated) | 26% | 5% | 
NC(Cc1cc(Br)c(O)c(Br)c1)C(=O)O (configuration not stated) | 72% | 6% | 
N[C@H](Cc1ccc(O)cc1)C(=O)O | 119% | 85% | inhibition at 100 µM [5]: > 70%
N[C@H](Cc1ccccc1)C(=O)O [D-PHENYLALANINE] |  |  | inhibition at 500 µM [3]: > 70%
N[C@@H](Cc1ccc(F)c(F)c1)C(=O)O | 145% | 31% | 
N[C@@H](Cc1ccc(O)c([N+](=O)[O-])c1)C(=O)O | 80% | 16% | 
N[C@@H](Cc1ccc(O)c(O)c1)C(=O)O [LEVODOPA] | 84% | 32% | 
N[C@H](CO)C(=O)O [(D)-SERINE] | 85% | 83% | 
NCCc1ccc(O)c(O)c1 [DOPAMINE] | 98% |  | Activity [2]: 79%
NC(C(=O)O)C(O)c1ccc(O)c(O)c1 (configuration not stated) | 104% | 12% | Activity [6]: Non-Toxic; Activity [7]: Dose-Dependent Effect; Activity [8]: inactive; Activity [9]: inactive; Activity [10]: inactive; Activity [11]: Dose-Dependent Effect; Activity [12]: Dose-Dependent Effect; Activity [13]: inactive; Activity [14]: inactive; Activity [15]: inactive; inhibition at 10 µM [16]: 53%; Activity [17]: inactive
O=c1c(O)c(-c2ccc(O)c(O)c2)oc2cc(O)cc(O)c12 [QUERCETIN] |  |  | inhibition at 66 µM [18]: > 70%; inhibition at 100 µM [19]: > 70%
